Our source for the melting point and IC50 values is patent US6635786B2, “Symmetrically disubstituted aromatic compounds and pharmaceutical compositions for inhibiting poly (ADP-ribose) glycohydrolase, and methods for their use” (Guilford Pharmaceuticals, Inc., priority 2001, dated 2003).

One data set has as its target T1, human PARG (Homo sapiens, UniProt Q86W56).
T1 construct: human PARG from amino acid 378 to 976; GST (glutathione-S-transferase, pGEX-4T1) (N); made in house; host or cells: E. coli BL21
In words: PARG enzymatic assay. In kind it is biochemical. Conditions: recombinant GST-fused human PARG (aa 378-976); 3H-labeled poly-(ADP-ribose) substrate; 23° C., 10 min. As for the experimental part: The potency of PARG inhibition was determined in a PARG enzymatic assay. For each compound, various doses were used to inhibit the PARG reaction. A dose responsible curve was generated to determine the IC50 value and the concentration (in μM) required to achieve 50% inhibition of the reaction.
The PARG assay consisted of (a) preparation of 3H-labeled radioactive PARG as substrate, (b) purification of recombinant PARG, (c) incubation of the compound with the PARG reaction, (d) separation of the product by absorption to glass fiber filter and quantifying the radioactivity of ADP-ribose by scintillation counting.
3H-labeled poly-(ADP-ribose) was made by mixing labeled and unlabeled PAR. Labeled PAR was synthesized in a reaction of 50 mM Tris-HCl (pH 8.0), 4 mM MgCl2, 0.8 μg/mL activated DNA, 3 μM NAD, NEN 3H-NAD (0.1 mCi/mL), 0.8 μl/mL and 1.4 μl/mL Trevigen PARP. The reaction was incubated at room temperature for 60 min, then dialyzed to remove unincorporated 3H NAD using a MWCO 7000 dialysis cassette in 50 mM Phosphate buffer (pH 7.1) at 5° C. over night. Buffer was changed and dialysis continued for 2 h in the morning. The resulting 3H PAR gave 80,000 DPM/10 μL by scintillation counting.
Unlabeled PAR was synthesized in a reaction that consisted of 50 mM Tris-HCl (pH 8.0), 4 mM MgCl2, 0.8 μg/mL activated DNA, 150 μM NAD, and 1.9 μl/mL Trevigen PARP. The reaction was incubated at room temperature for 60 min, and dialyzed to remove unincorporated NAD in a MWCO 7000 cassette using 50 mM Phosphate buffer (pH 7.1) over night at […]. Buffer was changed and dialysis continued for 2 h in the morning. The OD260 of synthesized PAR is […].
The final PAR mix is made by combining 3H-PAR and PAR synthesized @ 150 μM NAD so that the OD260=0.2-0.3 and the DPM/10 μL=10,000 DPM (SA=0.45 Ci/mmole). EDTA was added to 1 mM.
A cDNA fragment encoding the carboxy terminal part of human PARG from amino acid 378 to 976 was amplified by polymerase chain reaction with human thymus cDNA (Clontech, Palo Alto, Calif.) as a template and a pair of primers with the sequences of 5′-[…]-3′ and 5′-[…]-3′. The primers contained the restriction enzyme sites EcoRI and XhoI. The PCR amplified PARG DNA fragment was digested with EcoRI and XhoI, and then ligated to the same sites in pGEX-4T1 plasmid (acquired from Pharmacia/Upjohn Co., Kalamazoo, Mich.) to create pGEX-PARG by using standard molecular biology procedure. The pGEX-PARG was transformed into E. coli strain BL21 for expressing the recombinant protein that has a glutathione-S-transferase at the amino terminus and fused in frame with PARG at the carboxy terminus. The recombinant protein was expressed and purified using glutathione-sephadex 4B beads according to the standard methodology.
A range of potential PARG inhibitors at final concentrations of 200.0 to 0.1 μM were tested, each point done in triplicate. The compounds were dissolved in DMSO resulting in a final DMSO concentration of 5.0%. The reaction was carried out in a volume of 0.1 mL. PARG enzyme was added to a concentration of 0.05 μL/mL to microtiter plates containing approximately 10 μM 3H-labeled poly-(ADP-ribose) in 50 mM Phosphate buffer (pH 7.1), 5 mM B-mercaptoethanol. The reaction was incubated at 23° C. for 10 min. and was stopped with the addition of TCA to a final concentration of 10%.
Enzyme activity was measured by the disappearance of substrate, [poly-(ADP-ribose) polymer], which was quantified as the loss of glass fiber filter adsorbed radioactivity. The reaction was harvested onto Millipore GFC96 well filter plates using the Packard Cell Harvestor. The plates were washed three times with 70% ethanol, air dried, and the radioactivity was measured by scintillation counting.

pIC50: −log10 of the molar value.

T1 sequence (Q86W56 378-976): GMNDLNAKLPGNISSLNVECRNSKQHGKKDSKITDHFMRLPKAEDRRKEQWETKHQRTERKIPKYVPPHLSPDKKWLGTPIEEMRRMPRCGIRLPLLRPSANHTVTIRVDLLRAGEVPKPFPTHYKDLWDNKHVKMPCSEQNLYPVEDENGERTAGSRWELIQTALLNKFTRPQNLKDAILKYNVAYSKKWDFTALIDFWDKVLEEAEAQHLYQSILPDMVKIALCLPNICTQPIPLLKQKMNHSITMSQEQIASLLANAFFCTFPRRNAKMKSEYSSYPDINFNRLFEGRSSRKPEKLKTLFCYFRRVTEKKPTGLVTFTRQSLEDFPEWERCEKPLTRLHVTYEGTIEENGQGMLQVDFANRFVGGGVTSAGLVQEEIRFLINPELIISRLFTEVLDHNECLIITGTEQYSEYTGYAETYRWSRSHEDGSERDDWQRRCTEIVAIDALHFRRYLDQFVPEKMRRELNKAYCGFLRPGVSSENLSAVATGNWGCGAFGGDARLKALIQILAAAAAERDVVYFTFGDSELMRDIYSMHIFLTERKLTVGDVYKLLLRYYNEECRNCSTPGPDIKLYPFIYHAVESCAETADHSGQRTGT

By melting point is commonly meant the temperature, or range, at which the solid turns liquid. The term pIC50 denotes the negative decadic logarithm of the IC50, by convention in mol/L. `O=C(NCc1ccc(O)c(O)c1)c1ccc2c(c1)C(=O)c1cc(C(=O)NCc3ccc(O)c(O)c3)ccc1-2` [Example 58, 9-Oxo-9H-fluorene-2,7-bis-(3,4-dihydroxy-benzylamide)] returned a melting point of 160 to 163 °C. Further, at human PARG, the pIC50 is 5.00.

With `O=C(NCCCc1ccccc1)c1ccc2c(c1)C(Cl)(Cl)c1cc(C(=O)NCCCc3ccccc3)ccc1-2` [Example 13, 2,7-Bis-[N-(3-phenyl-propyl)-carbamoyl]-9,9-dichloro-9H-fluorene], the melting point is 165 to 167 °C. For the same compound, on human PARG, the negative logarithm of the IC50 (pIC50) is 5.37.

For `O=C(CCN1CCN(c2ccccc2)CC1)c1ccc2c(c1)Cc1cc(C(=O)CCN3CCN(c4ccccc4)CC3)ccc1O2` [Example 39, 2,7-Bis-[3-(4-phenyl-piperazin-1-yl)propionyl]-xanthene], the melting point is 206 to 208 °C. Further, the negative logarithm of the IC50 (pIC50) on human PARG was 5.15.
